From patent US20140329863A1 (priority 2011, published 2014)
Where two headings read alike, the source gives them in different places. Marks after values point to notes of the source that are not given here.

Key:
PrP^C in T98G cells = type: cell-based, human; settings: read-out: EC50 (μM) ELISA potency, PrP^C in T98G cells
[1] = Hepatic microsomal stability, human; settings: human liver microsomes; for Hepatic Extraction Ratio Human: predicted hepatic extraction; for half-life at 1 μM: human, pH 7.4
[2] = Hepatic microsomal stability, mouse; settings: mouse liver microsomes; for Hepatic Extraction Ratio Mouse: predicted hepatic extraction; for half-life at 1 μM: mouse, pH 7.4
[3] = tested on: PrP^Sc in nondividing ScN2a-cl3 cells; type: cell-based, mouse
N2a-cl3 cells [4] = assay: cells; settings: Mus musculus
[5] = tested on: PrP^Sc in dividing ScN2a-cl3 cells; type: cell-based, mouse; set-up: Dividing ELISA pEC50 (μM) 1st Expt. / Dividing ELISA pEC50 (μM) 2nd Expt. / Dividing ELISA pEC50 (μM) 3rd Expt. / Dividing ELISA pEC50 (μM) Mean: unit not given here
N2a-cl3 cells [6] = tested on: N2a-cl3 cells
[7] = tested on: PrP^Sc in ScN2a-cl3 cells; type: cell-based, mouse; settings: Western immunoblots
[8] = read-out: Non-Dividing ELISA EC50 (μM) Mean (n = 3), ScN2a-c13 non-dividing cells, mean n = 3
[9] = N2a-cl3, read-out: Dividing Calcein EC50 (μM) Mean (n = 3)
[10] = read-out: Dividing ELISA EC50 (μM) 1st Expt., ScN2a-cl3 dividing cells, 1st determination
[11] = read-out: Dividing ELISA EC50 (μM) 2nd Expt., ScN2a-cl3 dividing cells, 2nd determination
[12] = read-out: Dividing ELISA EC50 (μM) 3rd Expt., ScN2a-cl3 dividing cells, 3rd determination
[13] = read-out: Dividing ELISA EC50 (μM) Mean, ScN2a-cl3 dividing cells, mean of three determinations
[14] = ScN2a-cl3 dividing cells, 1st determination
[15] = ScN2a-cl3 dividing cells, 2nd determination
[16] = ScN2a-cl3 dividing cells, 3rd determination
[17] = ScN2a-cl3 dividing cells, mean of three determinations

## COc1ccccc1C(=O)N1CCN(c2ccccc2OC)CC1 [IND116050]
PrP^C in T98G cells
  EC50: 0.887 µM

## COc1ccc(Cl)cc1C(=O)N1CC(=O)Nc2ccccc21 [IND116063]
PrP^C in T98G cells
  EC50: 0.647 µM

## COc1ccc(S(=O)(=O)N2CCOc3ccccc32)cc1 [IND116071]
[1]
  Hepatic Extraction Ratio Human: 0.94
  half-life at 1 μM: 4.53 min
PrP^C in T98G cells
  EC50: 1.71 µM
[2]
  Hepatic Extraction Ratio Mouse: 0.98
  half-life at 1 μM: 1.53 min

## Cc1c(C(=O)OC(C)C)[nH]c2c1C(=O)CC(c1cccs1)C2 (stereo not shown) [IND116088]
[1]
  Hepatic Extraction Ratio Human: 0.74
  half-life at 1 μM: 23.9 min
PrP^C in T98G cells
  EC50: 0.303 µM
[2]
  Hepatic Extraction Ratio Mouse: 0.90
  half-life at 1 μM: 6.88 min

## Cc1nc2sccn2c1-c1csc(Nc2ccc(N(C)C)nc2)n1 [IND126306]
PrP^C in T98G cells
  EC50: 0.217 µM

## CCN(CC)c1ccc2c(c1)OC(N)=C(C#N)C2c1ccccc1 (stereo not shown) [IND126322]
PrP^C in T98G cells
  EC50: 0.174 µM

## CCOc1ccc(Nc2nc(-c3c(C)nc4sccn34)cs2)cc1 [IND126328]
[1]
  Hepatic Extraction Ratio Human: 0.76
  half-life at 1 μM: 21.9 min
PrP^C in T98G cells
  EC50: 0.065 µM
[2]
  Hepatic Extraction Ratio Mouse: 0.86
  half-life at 1 μM: 9.64 min

## COc1ccc(Cl)cc1NS(=O)(=O)c1ccc(N2CCCC2=O)cc1 [IND126331]
PrP^C in T98G cells
  EC50: 0.684 µM

## COc1cccc(N2CCN(C(=O)c3cc(C)ccc3OC)CC2)c1 [IND126339]
[1]
  Hepatic Extraction Ratio Human: 0.87
  half-life at 1 μM: 10.3 min
PrP^C in T98G cells
  EC50: 0.248 µM
[2]
  Hepatic Extraction Ratio Mouse: 0.95
  half-life at 1 μM: 3.2 min

## CCOC(=O)c1[nH]c2c(c1C)C(=O)CC(c1ccccc1Cl)C2 (stereo not shown) [IND126429]
PrP^C in T98G cells
  EC50: 0.497 µM

## CCOC(=O)c1[nH]c2c(c1C)C(=O)CC(c1ccccc1)C2 (stereo not shown) [IND126432]
PrP^C in T98G cells
  EC50: 0.144 µM

## Cc1ccc2[nH]c3c(c2c1)CCCC3NCCCN(C)C (stereo not shown) [IND-23308]
[3]; HTS, nondividing cells
  HTS % inhibition: 70%
[3]; SPC assay, nondividing cells
  Inhibition of Baseline PrP^5c (%) Non-dividing Cells ELISA: 94^d %
[3]; SPC assays, nondividing cells
  SPC % inhibition: 94%
[3]; read-out: EC50, PrP^Sc ELISA in stationary-phase (nondividing) cells
  EC50: 7.5 µM
N2a-cl3 cells [4]; N2a-cl3, read-out: potency in cell viability, dividing cells
  EC50: > 10 µM
N2a-cl3 cells [4]; N2a-cl3, read-out: potency in cell viability, stationary-phase cells
  EC50: > 10 µM
[5]; SPC assay, dividing cells
  Inhibition of Baseline PrP^5c (%) Dividing Cells ELISA: 88%
[5]; read-out: EC50, PrP^Sc ELISA in dividing ScN2a-c13 cells
  EC50: 1580 nM
N2a-cl3 cells [6]
  Dividing Cells V (cell viability percentages): 30%
  Effect on cell viability (EC50): no effect on cell viability
  Non-dividing Cells V (cell viability percentages): 12%

## OCCNCc1cc(Br)ccc1OCc1ccc(Cl)cc1Cl [IND-0033452]
[7]; ScN2a-cl3 cells, read-out: EC50 (nM): Western
  EC50: 1990 nM
[7]; read-out: Potency (nM) Western (EC50), dividing ScN2a-cl3 cells
  EC50: 1990 nM
[5]; dividing ScN2a-cl3 cells, read-out: EC50 (nM): ELISA
  EC50: 2850 nM
[5]; read-out: Potency (nM) ELISA (EC50), PrP^Sc ELISA, dividing ScN2a-cl3 cells
  EC50: 2850 nM
N2a-cl3 cells [6]
  Calcein: MW: 405.1 EC50 (nM): ELISA: 2850 Calcein: 27% Western: 1993
N2a-cl3 cells [6]; mouse
  Calcein (value printed in %): 27%

## COc1ccc(-c2csc(Nc3ccc(C)cn3)n2)cc1OC [compound 14, [4-(3,4-dimethoxyphenyl)-thiazol-2-yl]-(5-methylpyridin-2-yl)-amine]
[3]; [8]
  EC50: > 32 µM
N2a-cl3 cells [4]; [9]
  EC50: > 32 µM
[5]; [10]
  EC50: 974 nM
[5]; [11]
  EC50: 577 nM
[5]; [12]
  EC50: 815 nM
[5]; [13]
  EC50: 789 nM

## c1ccc2cc(Nc3nc(-c4ccncc4)cs3)ncc2c1 [compound 32]
[3]; [8]
  EC50: > 32 µM
[5]; [14]
  Dividing ELISA pEC50 (μM) 1st Expt.: 6.58
[5]; ScN2a-cl3 dividing cells, 1st determination, read-out: Dividing ELISA EC50 (μM) 1st Expt.
  EC50: 261 nM
[5]; [15]
  Dividing ELISA pEC50 (μM) 2nd Expt.: 6.56
[5]; ScN2a-cl3 dividing cells, 2nd determination, read-out: Dividing ELISA EC50 (μM) 2nd Expt.
  EC50: 277 nM
[5]; [16]
  Dividing ELISA pEC50 (μM) 3rd Expt.: 6.42
[5]; ScN2a-cl3 dividing cells, 3rd determination, read-out: Dividing ELISA EC50 (μM) 3rd Expt.
  EC50: 383 nM
[5]; [17]
  Dividing ELISA pEC50 (μM) Mean: 6.52
[5]; ScN2a-cl3 dividing cells, mean of three determinations, read-out: Dividing ELISA EC50 (μM) Mean
  EC50: 307 nM
N2a-cl3 cells [6]; read-out: Dividing Calcein EC50 (μM) Mean (n = 3)
  EC50: > 32 µM

## c1ccc(-c2cc(-c3csc(Nc4cc5ccccc5cn4)n3)on2)cc1 [compound 35, Isoquinolin-3-yl-[4-(3-phenylisoxazol-5-yl)-thiazol-2-yl]-amine]
[3]; [8]
  EC50: > 32 µM
N2a-cl3 cells [4]; [9]
  EC50: > 32 µM
[5]; [14]
  Dividing ELISA pEC50 (μM) 1st Expt.: 5.93
[5]; [15]
  Dividing ELISA pEC50 (μM) 2nd Expt.: 6.24
[5]; [16]
  Dividing ELISA pEC50 (μM) 3rd Expt.: 6.18
[5]; [17]
  Dividing ELISA pEC50 (μM) Mean: 6.12
[5]; [10]
  EC50: 1160 nM
[5]; [11]
  EC50: 573 nM
[5]; [12]
  EC50: 663 nM
[5]; [13]
  EC50: 799 nM

## Cc1ccc(Nc2nc3c(s2)Cc2ccccc2-3)nc1 [compound 38, (8H-Indeno[1,2-d]thiazol-2-yl)-(5-methylpyridin-2-yl)-amine]
[3]; [8]
  EC50: > 32 µM
N2a-cl3 cells [4]; [9]
  EC50: > 32 µM
[5]; [14]
  Dividing ELISA pEC50 (μM) 1st Expt.: 5.70
[5]; [15]
  Dividing ELISA pEC50 (μM) 2nd Expt.: 5.52
[5]; [16]
  Dividing ELISA pEC50 (μM) 3rd Expt.: 5.63
[5]; [17]
  Dividing ELISA pEC50 (μM) Mean: 5.62
[5]; [10]
  EC50: 1990 nM
[5]; [11]
  EC50: 2990 nM
[5]; [12]
  EC50: 2340 nM
[5]; [13]
  EC50: 2440 nM

## COc1cc2c(cc1OC)-c1nc(Nc3ccc(C)cn3)sc1C2 [compound 39, (5,6-Dimethoxy-8H-indeno-[1,2-d]thiazol-2-yl)-(5-methylpyridin-2-yl)-amine]
[3]; [8]
  EC50: > 32 µM
N2a-cl3 cells [4]; [9]
  EC50: > 32 µM
[5]; [14]
  Dividing ELISA pEC50 (μM) 1st Expt.: 5.46
[5]; [15]
  Dividing ELISA pEC50 (μM) 2nd Expt.: 5.23
[5]; [16]
  Dividing ELISA pEC50 (μM) 3rd Expt.: 5.13
[5]; [17]
  Dividing ELISA pEC50 (μM) Mean: 5.27
[5]; [10]
  EC50: 3450 nM
[5]; [11]
  EC50: 5930 nM
[5]; [12]
  EC50: 7380 nM
[5]; [13]
  EC50: 5590 nM

## Cc1ccnc(Nc2nc(-c3cc(-c4ccccc4)no3)cs2)c1 [compound 43, (4-Methylpyridin-2-yl)-[4-(3-phenylisoxazol-5-yl)-thiazol-2-yl]-amine]
[3]; [8]
  EC50: > 32 µM
N2a-cl3 cells [4]; [9]
  EC50: > 32 µM
[5]; [14]
  Dividing ELISA pEC50 (μM) 1st Expt.: 5.98
[5]; [15]
  Dividing ELISA pEC50 (μM) 2nd Expt.: 5.96
[5]; [16]
  Dividing ELISA pEC50 (μM) 3rd Expt.: 5.78
[5]; [17]
  Dividing ELISA pEC50 (μM) Mean: 5.90
[5]; [10]
  EC50: 1050 nM
[5]; [11]
  EC50: 1100 nM
[5]; [12]
  EC50: 1670 nM
[5]; [13]
  EC50: 1280 nM
